Laboratory results published in PMC12379159 (Journal of Natural Products, 2025).
Where a chain is given by its changes, count along the chain named.

Assays:
Gal4-hRORγ = target: T1, Gal4-hRORγ (Homo sapiens, UniProt P51449); experiment: Gal4-RORγ mammalian one-hybrid luciferase assay; format: cell-based; settings: HEK293 cells
T1 construct: Encodes for a hRORγ-LBD:Gal4-DBD fusion protein; expressed in transfected cells; host or cells: HEK293
T1 sequence (P51449 269-508 limits assumed): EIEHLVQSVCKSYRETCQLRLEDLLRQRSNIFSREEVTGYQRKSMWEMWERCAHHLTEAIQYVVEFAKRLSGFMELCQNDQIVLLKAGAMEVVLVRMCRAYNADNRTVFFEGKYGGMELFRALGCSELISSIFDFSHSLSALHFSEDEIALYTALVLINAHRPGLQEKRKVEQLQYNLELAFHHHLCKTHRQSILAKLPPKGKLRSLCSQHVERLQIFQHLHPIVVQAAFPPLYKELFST
Description: (§1) For luciferase assays, 8 × 10^6 HEK293 cells were seeded on 150 mm cell culture dishes and incubated for 5 h. Afterward, cells were transfected with the calcium phosphate coprecipitation method using 5 μg of the nuclear receptor (Gal4-hRORγ or full-length human RORγ), 5 μg of a luciferase reporter (pTK-MH100 × 4-LUC for Gal4-hRORγ experiments or RORE-LUC for full-length human RORγ experiments) and 3 μg eGFP-N1 (for assessing transfection efficiency) plasmid DNA and incubated overnight. […] The medium was changed the following day, and cells were further incubated for another four to 5 h before trypsin/EDTA was added to detach them from the dishes. […] RLUs were normalized to relative fluorescence units (RFU) to account for differences in cell number and transfection efficiency and then normalized to the vehicle control. Results are expressed as fold activation relative to the vehicle control.
(§2) Concentration–response data were analyzed in GraphPad Prism version 10 by three-parameter logistic nonlinear regression, with the Hill slope constrained to a theoretical value of −1.0. An IC50 value was determined only for compounds yielding a statistically reliable fit. […] In these cases, only the maximal inhibition achieved at the highest tested concentration (I max(%) at 5 μM) is reported, calculated as follows: Imax(%)=(1−Bottom/Top)×100 (“top” = baseline activity measured at the lowest concentration, “bottom” = residual activity observed at the highest concentration, corresponding to the maximal inhibitory effect).

full-length human RORγ = target: T2, full-length human RORγ (Homo sapiens, UniProt P51449); experiment: Full-length RORγ luciferase assay (RORE-LUC reporter); format: cell-based; settings: HEK293 cells, 5 μM
T2 construct: Encodes for the full-length human RORγ; expressed in transfected cells; host or cells: HEK293
T2 sequence (P51449 1-518): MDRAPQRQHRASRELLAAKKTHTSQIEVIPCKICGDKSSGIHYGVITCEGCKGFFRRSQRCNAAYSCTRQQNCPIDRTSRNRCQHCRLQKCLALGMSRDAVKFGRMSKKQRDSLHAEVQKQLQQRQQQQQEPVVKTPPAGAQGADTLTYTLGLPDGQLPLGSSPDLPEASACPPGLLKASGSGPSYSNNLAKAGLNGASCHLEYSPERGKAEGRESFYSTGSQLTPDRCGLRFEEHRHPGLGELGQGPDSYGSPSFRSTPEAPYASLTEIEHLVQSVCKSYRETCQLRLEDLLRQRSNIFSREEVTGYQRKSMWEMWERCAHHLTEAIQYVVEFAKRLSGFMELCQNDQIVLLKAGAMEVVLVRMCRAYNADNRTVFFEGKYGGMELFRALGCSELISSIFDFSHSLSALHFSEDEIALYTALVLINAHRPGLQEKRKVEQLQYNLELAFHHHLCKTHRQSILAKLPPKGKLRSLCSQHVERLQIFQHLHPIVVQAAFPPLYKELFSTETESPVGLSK
Description: as §1, §2

hRORγ LBD = target: T3, hRORγ LBD (Homo sapiens, UniProt P51449); experiment: Thermal stability by nano differential scanning fluorimetry (nanoDSF); format: binding; settings: RORγ-LBD with 4 equiv ligand vs without ligand; mean ± SD
T3 construct: His tag (N, cleaved yes); made in house; host or cells: Escherichia coli BL21 DE3
T3 sequence (P51449 264-518): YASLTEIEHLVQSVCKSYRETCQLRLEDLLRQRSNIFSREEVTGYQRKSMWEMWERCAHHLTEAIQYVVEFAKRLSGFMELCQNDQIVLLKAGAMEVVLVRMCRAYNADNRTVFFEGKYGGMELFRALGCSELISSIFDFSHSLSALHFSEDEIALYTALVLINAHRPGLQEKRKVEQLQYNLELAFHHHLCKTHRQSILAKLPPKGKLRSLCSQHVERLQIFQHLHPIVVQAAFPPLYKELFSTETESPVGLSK
Description: Soluble proteins were purified on Ni Hitrap FFcrude column (Cytiva), followed by His tag removal by thrombin (MP Biomedicals) cleavage and by size exclusion chromatography on HiLoad Superdex200 column (Cytiva) equilibrated in 20 mM Tris-HCl pH 7.5, 150 mM NaCl, 1 mM TCEP (Hampton Research). Purity and homogeneity of the hRORγ LBD were assessed by SDS-PAGE. The purified protein was concentrated to 0.5–1.0 mg/mL with an Amicon Ultra 10 kDa MWCO. The aliquots of purified LBD were incubated with 4 equiv ligands or vehicle for thermal stability experiments.
Fluorescence-based thermal experiments were performed using a Prometheus NT.48 (NanoTemper Technologies, Germany) with grade standard capillaries containing 10 μL of RORγLBD with different ligands. […] NanoTemper PR. Stability Analysis v1.0.2 was used to fit the data and determine the melting temperatures Tm.

HEK293 cells = experiment: Resazurin conversion assay in HEK293 cells; format: cell-based, human; settings: 5 μM, 18 h
Description: (§3) To check the metabolic activity of cells correlating with cell viability, cells were treated with the vehicle control (0.1% DMSO), digitonin as the positive control for cytotoxicity at 20 μg/mL (HEK293 cells) or 50 μg/mL (EL-4-mRORγt cells), or the compounds of interest at 5 μM for 18 h (HEK293 cells) or 20–24 h (EL-4-mRORγt cells). The next day, the medium was carefully removed and replaced with stripped DMEM without phenol red, containing 10 μg/mL resazurin sodium salt. Cells were incubated for 5 h before RFU values were measured at λem = 590 nm using a spectrophotometer. Cell viability was calculated as follows: Cell viability(%)=100×RFU value after compound treatment/RFU value after vehicle control treatment Cytotoxicity was defined as cell viability under 70% according to the ISO 10993–5 guidelines. Cell viability <90% is explicitly stated in the respective figure.

EL-4-mRORγt cells = experiment: Resazurin conversion assay in EL-4-mRORγt cells; format: cell-based, murine; settings: 5 μM, 20-24 h
Description: as §3

[1] = system: Il17a and Il17f (Il17a/f); experiment: RT-qPCR of Il17a and Il17f in EL-4-mRORγt cells; format: cell-based, murine; settings: 5 μM, 20–24 h, then 4.5-h PMA and ionomycin
Description: For RT-qPCR assays, 5 × 10^5 EL-4-mRORγt cells were seeded in 500 μL complete DMEM per well of a 24-well plate and treated with the vehicle control, the positive control, or the compounds of interest. After incubation for 20–24 h, cells were stimulated with Cell Activation Cocktail (PMA: 40.5 μM, ionomycin: 669.3 μM; 500X) for 4.5 h. Afterward, total RNA was isolated using the innuPREP RNA Mini Kit 2.0 according to the manufacturer’s instructions. According to the manufacturer’s instructions, 1 μg RNA was reverse-transcribed into cDNA using the High-Capacity cDNA Reverse Transcription Kit. RT-qPCR was performed using the Luna Universal qPCR Master Mix on a LightCycler 480 (Roche Diagnostics, Rotkreuz, Switzerland) according to the manufacturer’s instructions. […] Livak’s 2−ΔΔCt method was employed to determine the expression levels of RORγ target genes. This involved normalizing the target gene expression to the expression levels of the control gene 18s, followed by further normalization to the vehicle control.

Gal4-RORγ H479L = target: T4, Gal4-RORγ H479L (Homo sapiens, UniProt P51449, H479L); experiment: Gal4-RORγ H479L mutant luciferase assay; settings: 5 μM
T4 sequence (P51449 269-508 H479L limits assumed): T1 sequence (P51449 269-508 limits assumed) with H211L
Description: Gal4-hRORγ H323A and H479L mutants were generated using the QuikChange Lightning Site-Directed Mutagenesis Kit according to the manufacturer’s instructions. Briefly, 10 ng template DNA (Gal4-hRORγ) was PCR-amplified with the respective mutagenic forward and reverse primers listed in Table S3, which were designed using the QuikChange Primer Design tool (https://www.agilent.com/store/primerDesignProgram.jsp). […] Two μL of the PCR product were then transformed into XL1-Blue competent E. coli according to a protocol provided by NEB. […] After centrifuging the main culture at 5691g for 10 min, the supernatant was decanted, and plasmid preparation was performed using the PureLink HiPure Plasmid Midiprep Kit according to the manufacturer’s instructions. DNA yields and purities were checked using a NanoDrop 2000c (Thermo Fisher Scientific, Waltham, MA, USA).

- Imax(%) at 5 μM, Gal4-RORγ luciferase assay (Gal4-hRORγ; 5 μM): 47%
- IC50 (Gal4-hRORγ; 18 h treatment, up to 5 μM): 1.2 µM
- Imax(%) at 5 μM, full-length RORγ luciferase assay (full-length human RORγ): 38%
- ΔTm measured with nano differential scanning fluorimetry (hRORγ LBD): 9.1 ± 0.2 °C
- Activity on Gal4-RORγ H479L vs WT (Gal4-RORγ H479L): notable decrease in activity
Compound: C=C(C)[C@@H]1CC[C@]2(C(=O)O)CC[C@]3(C)[C@H](CC[C@@H]4[C@@]5(C)CC[C@H](O)C(C)(C)[C@@H]5CC[C@]43C)[C@@H]12 [Betulinic acid, reference compound]
- Cytotoxic effects, resazurin conversion assay (HEK293 cells): no cytotoxic effects
- Cytotoxic effects, resazurin conversion assay (EL-4-mRORγt cells): no cytotoxic effects
- Il17a/f expression [1]: reduction of Il17a/f expression
